Experimental findings from PubChem BioAssay (NCI) are described below.

Where “and” joins values, the source holds several entries; their conditions need not be identical. Identical values can stand only once.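 96-well plates; 48 h exposure; 5 concentrations. Endpoints by linear interpolation between flanking doses. Not reached: highest tested concentration assigned. GI50 is the concentration that inhibits growth by half. TGI is the concentration that stops growth completely.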

In the first assay the test system is SNB-19 CNS. The assay is described as follows: DTP human tumour cell line panel, 48 h.
With `O=C(c1ccc(Cl)cc1)c1cnc(Nc2ccccc2Cl)s1`, the TGI (as a rule, the concentration giving total growth inhibition) was 51.3 µM.

The compound `CCC1C2C=CC(CC2)N1S(=O)(=O)c1ccc(C)cc1` (stereo not given) returned a TGI above 100 µM.

Compound `CCOc1ccc(N2C(=O)/C(=C/c3ccc(N(CCC#N)CCC#N)cc3)N=C2c2cc([N+](=O)[O-])ccc2Cl)cc1` registered a TGI above 100 µM.

For `COc1ccc(-c2cc(-c3ccccc3)c(C#N)c(=O)n2C2OC(CO)C(O)C(O)C2O)cc1` (stereo not given), the TGI is above 100 µM.

Take `CCOC(=O)C1(c2ccccc2)CCC(=O)CC1`: the TGI was above 100 µM.

Compound `O=C(N/N=C1/C(=O)N(c2ccc(Cl)cc2Cl)C(=O)C(=O)C1c1nc2ccccc2o1)c1ccccc1O` (stereo not given) had a TGI above 100 µM.

As to `CC(=O)O[C@H]1CCC2[C@@H]3CCC4=C(O)c5nocc5C[C@]4(C)C3CC[C@@]21C` (stereo not given in full), the concentration for total growth inhibition (TGI) was above 100 µM.

In the case of `O=C(O)CSc1n[nH]c(-c2ccccc2)n1`, the total growth inhibition concentration (TGI) is above 100 µM.

As to `O=c1cc2oc3cc(O)c(O)cc3c(-c3ccccc3O)c-2cc1O`, the GI50 (commonly the concentration giving 50% growth inhibition) is 9.65 µM and the TGI was above 100 µM.

As to `C[C@H]1Oc2cc(cnc2N)-c2c(nn(C)c2C#N)CN(C)C(=O)c2ccc(F)cc21`, the GI50 was above 100 µM and the TGI was above 100 µM.

In the case of `COc1ccccc1N1CCN(CCCn2c(=O)c3c(OC)nc(C)cc3c(=O)n2-c2ccccc2)CC1`, the GI50 is above 100 µM and the TGI was above 100 µM.

As to `Cc1ccc(-c2nc3ccc([N+](=O)[O-])cc3[nH]2)cc1`, the TGI is above 100 µM.

In the case of `O=C(O)[C@H](NS(=O)(=O)c1ccc2ccccc2c1)c1ccccc1`, the TGI was above 100 µM.

For `CC(=O)c1cc2c(o1)C(=O)c1ccccc1C2=O`, the 50% growth inhibitory concentration (GI50) was 0.222 µM and 0.267 µM; the TGI was 0.508 µM and 0.795 µM.

For `CCN(CC)c1nc(-c2ccc(Cl)cc2Cl)nc2ccccc12`, the GI50 was 40.8 µM and the TGI was above 100 µM.

With `Cc1nc2ccccc2nc1-c1ccc(N=[N+]([O-])c2ccc(-c3nc4ccccc4nc3C)cc2)cc1`, the TGI is above 100 µM.

In the next assay the test system is MCF7 breast. The assay is described as follows: DTP human tumour cell line panel, 48 h.
In turn, `O=C(c1ccc(Cl)cc1)c1cnc(Nc2ccccc2Cl)s1` had a TGI of 86.7 µM.

With `O=c1cc2oc3cc(O)c(O)cc3c(-c3ccccc3O)c-2cc1O`, the GI50 was 18.4 µM and the TGI is above 100 µM.

Consider `C[C@H]1Oc2cc(cnc2N)-c2c(nn(C)c2C#N)CN(C)C(=O)c2ccc(F)cc21`, for which the GI50 is 5.42 µM and the TGI is above 100 µM.

Take `COc1ccccc1N1CCN(CCCn2c(=O)c3c(OC)nc(C)cc3c(=O)n2-c2ccccc2)CC1`: the GI50 is above 100 µM and the TGI was above 100 µM.

Compound `Cc1ccc(-c2nc3ccc([N+](=O)[O-])cc3[nH]2)cc1` came in with a concentration for total growth inhibition (TGI) above 100 µM.

On to `CC(=O)c1cc2c(o1)C(=O)c1ccccc1C2=O`, for which the GI50 is 0.167 µM and 0.171 µM; the TGI worked out at 0.394 µM.

On to `CCN(CC)c1nc(-c2ccc(Cl)cc2Cl)nc2ccccc12`, for which the GI50 is 22.2 µM and the TGI was above 68 µM.

For `Cc1nc2ccccc2nc1-c1ccc(N=[N+]([O-])c2ccc(-c3nc4ccccc4nc3C)cc2)cc1`, the TGI was above 100 µM.

The next assay relates to NCI-H23 lung. The assay is described as follows: DTP human tumour cell line panel, 48 h.
`COC(=O)[C@]1(C)CCCC2(C)C1CC[C@H]1C=C(C)[C@H]3CCC12C3` (stereo not given in full) had a TGI above 100 µM.

`O=C(Nc1cc(Cl)ccc1Cl)c1cc2cccc(Cl)c2oc1=O` yielded a TGI above 100 µM.

`Cc1ccc(Cn2c(C)nc3c2C(=O)c2ccccc2C3=O)cc1` showed a TGI of 20.5 µM.

The compound `CCOC(=O)C(C)(C)Oc1ccc2c(C)c(-c3ccc(Cl)cc3)c(=O)oc2c1` gave a TGI above 100 µM.

`Cc1c(Cl)cccc1N1C(=O)C(Cl)=C(Cl)C1=O` displayed a TGI above 100 µM.

`COc1ccc(NC(=O)/C(N=O)=C(/C)O)cc1` registered a TGI above 100 µM.

As to `COc1cccc(/C=N/[N-]C(=O)c2ccncc2)c1[O-].[Cu+2].[OH3+]`, the GI50 is 34.1 µM and the TGI is above 100 µM.

The compound `CCc1c(OC(C)=O)c2c(NC3OC(COC(C)=O)C(OC(C)=O)C(OC(C)=O)C3OC(C)=O)nc(OC)nc2oc1=O` (stereo not given) showed a TGI above 100 µM.

Regarding `O=C(NC(=O)c1cn(CCNCCO)c(=O)[nH]c1=O)OCc1ccccc1`, the TGI was above 100 µM.

`O=[N+]([O-])c1ccc(-n2nnc(C3=NCCN3)c2-c2ccc(Cl)cc2)cc1` showed a TGI above 100 µM.

Take `O=C(c1ccc(Cl)cc1)c1cnc(Nc2ccccc2Cl)s1`: the TGI stood at 53.7 µM.

`CCOc1ccc(N2C(=O)/C(=C/c3ccc(N(CCC#N)CCC#N)cc3)N=C2c2cc([N+](=O)[O-])ccc2Cl)cc1` displayed a TGI above 100 µM.

The compound `COc1ccc(-c2cc(-c3ccccc3)c(C#N)c(=O)n2C2OC(CO)C(O)C(O)C2O)cc1` (stereo not given) had a TGI above 100 µM.

For the compound `CCOC(=O)C1(c2ccccc2)CCC(=O)CC1`, the TGI is above 100 µM.

For the compound `O=C(N/N=C1/C(=O)N(c2ccc(Cl)cc2Cl)C(=O)C(=O)C1c1nc2ccccc2o1)c1ccccc1O` (stereo not given), the TGI was determined as 84.3 µM.

Turning to `CC(=O)O[C@H]1CCC2[C@@H]3CCC4=C(O)c5nocc5C[C@]4(C)C3CC[C@@]21C` (stereo not given in full), the TGI was above 100 µM.

The compound `O=C(O)CSc1n[nH]c(-c2ccccc2)n1` returned a total growth inhibition concentration (TGI) above 100 µM.

In the case of `O=c1cc2oc3cc(O)c(O)cc3c(-c3ccccc3O)c-2cc1O`, the GI50 is 3.88 µM and the TGI came out at 39.1 µM.

With `C[C@H]1Oc2cc(cnc2N)-c2c(nn(C)c2C#N)CN(C)C(=O)c2ccc(F)cc21`, the GI50 is 59.1 µM and the TGI was above 100 µM.

As to `COc1ccccc1N1CCN(CCCn2c(=O)c3c(OC)nc(C)cc3c(=O)n2-c2ccccc2)CC1`, the GI50 is above 100 µM and the TGI was above 100 µM.

`Cc1ccc(-c2nc3ccc([N+](=O)[O-])cc3[nH]2)cc1` registered a TGI above 100 µM.

With `O=C(O)[C@H](NS(=O)(=O)c1ccc2ccccc2c1)c1ccccc1`, the TGI is above 100 µM.

For `CC(=O)c1cc2c(o1)C(=O)c1ccccc1C2=O`, the GI50 is 0.19 µM and 0.153 µM; the total growth inhibition concentration (TGI) was 0.535 µM and 0.458 µM.

In the case of `CCN(CC)c1nc(-c2ccc(Cl)cc2Cl)nc2ccccc12`, the GI50 was 22.8 µM and the TGI is 62.8 µM.

With `Cc1nc2ccccc2nc1-c1ccc(N=[N+]([O-])c2ccc(-c3nc4ccccc4nc3C)cc2)cc1`, the TGI was above 100 µM.
